Consider one molecule from patent US20070225213A1, “Nucleic acid carriers for delivery of therapeutic agents” (priority 2006, published 2007).

One data set has as its system COS7. In words: Toxicity of NAC-MTN vs CD-MTN and MTN, MTT (Example 9, EX042105). The class given is cell-based, green monkey. As to the method:
FIG. 4. […] The relative toxicity of NAC-MTN was compared with MTN and CD-MTN in four cell lines, MCF7(breast cancer), COS7green monkey kidney (SV40 transformed), 3T3 (mouse fibroblast), and BHK21(hamster kidney). Cells were treated with identical amounts of MTN formulated as either NAC-MTN, MTN only, or poly-beta-cyclodextrin-sulfylbutylether(CD-MTN). After an incubation period, cell viability was assayed with MTT assay. The differences in toxicity between NAC-MTN and MTN or NAC-MTN and CD-MTN are shown as % difference. Greater percentage difference correlates to more reduction in relative NAC-MTN toxicity.
MCF7, COS7, 3T3, and BHK21 cells were plated out in duplicate rows of equivalent cell density in 100ul final volume. Initial cell densities were 2000 cells/well.
Preparing NAC-MTN, CD-MTN, and MTN only. Combined 180 ul of 0.05 mg/ml MTN with […] 0.1 mg/ml herring sperm genomic DNA (HSGDNA, Promega), 1500 ul of 2× DMEM media containing 20% FBS to give 3.0 ml final volume and 12% final drug loading in the dsDNA. For MTN only, 180 ul of MTN was combined with 1320 ul H2O and 1500 ul 2× DMEM. […]
Aspirated media in plate and replaced with 50 ul of 0.5 mg/ml MTT in 1× media, incubated 3 hours, aspirated, air dried 5 min and dissolved in 100 ul of isopropyl, read OD at A570. […]

Another data set relates to human MCF-7 cells. In words: Visually scored toxicity of NAC-MTN / NAC-DOX at fixed loading (Example 3). The class given is cell-based. To be noted: 5.6 ug/ml final drug; 5.1% drug loading; 16 hour incubation. As to the method: Toxicity of NAC-MTN or NAC-DOX, at 50, 16.9, 5.6, and 1.9 ug/ml final drug concentration and 5.1 % drug loading in human MCF-7 cells. Sample A: 15 mg of HSDNA (EX031804A) was combined with 0.76 mg MTN(mw 517.4) or (sample B) 0.76 mg DOX (mw 579.99) to give 152 ug/ml final drug and 5.1% loading in 5 ml final vol. Samples C, D were MTN, or DOX only controls at equivalent final [drug] without HSDNA. Sample E was HSDNA, no drug and sample F was H2O only. MCF-7 cells were trypsinized and plated out previously. Triplicate samples were diluted 0.1 ml in 0.2 ml 1× media to give 3× fold serial dilution in 0.2 ml final. After 16 hour incubation the cells were visually inspected for signs of toxicity. Toxicity was scored as the following: 50%=one half all cells rounded, un-adhered or crenated.

For data set [1] the following is noted: in vivo, iv.
Procedure: Differential targeting and distribution of NAC-MTN or MTN in major organs of the mouse. NAC-MTN or MTN was administered intravenously to mice and detected in major organs after 24 hours. […] Total MTN in tissues was quantified by MTN fluorescence, normalized against total tissue weight, and reported as MTN mg/g tissue.
Mice n=2, were injected i.v. with repeated dose of either NAC-MTN or MTN alone. MTN administered was the same for each mouse.
A 0.4 ml volume of each NAC-MTN or MTN formulation was prepared for injection in HBSS or H2O (Hanks Buffered Saline, Sigma-Aldrich) as indicated below. For NAC-MTN injection, 45 ul 10 mg/ml MTN was diluted first in 325 ul of HBSS solution, then 180 ul of herring sperm DNA (HSDNA, 50 mg/ml stock neutralized, 0.2 um filtered) was added to give a turquoise blue color. […] In MTN injection, 45 ul 10 mg/ml MTN was diluted in 385 ul of H2O.
On day 1, white mice, n=2, 24 g each, were tail vein injected by a micro-catheter with 0.16 ml at 14:50 or 0.15 ml at 15:30, respectively of either NAC-MTN or MTN. A second injection was followed at 17:00 and 16:50 of 0.2 ml each of NAC-MTN or MTN. To quantify total MTN retained, mouse urine was collected after 1st and 2nd injection. Total MTN was assayed in mouse urine immediately after 1st injection and second injection by reading MTN fluorescence 620/680 s=50 of a 0.2 ml sample in a styrene well, bottom read. […] A third dose of 0.2 ml was given the next morning, 22 hours after 1st injection (day 2), of either NAC-MTN or MTN. […] Twenty four hours after first injection (day 2), mice were sacrificed and MTN assayed in major organs. The liver, kidneys, heart, and lung were homogenized at high speed 50,000 rpm, and treated with 1% SDS (sodium dodecyl sulfate). The homogenates were frozen twice and centrifuged for 30 minutes at 14000 rcf.

In the case of `O=C1c2c(O)ccc(O)c2C(=O)c2c(NCCNCCO)ccc(NCCNCCO)c21` [MTN, mitoxantrone], the “% tox. relative to media only” value in the data set with COS7 (2 uM final MTN, MTT 48 hours after adding samples) is on record as 56.65%. Moreover, the toxic effect result in the data set with COS7 (after 24 hours, 2 uM MTN) is on record as “no toxic effect”. For the same molecule, the “Toxicity (visual score)” value with human MCF-7 cells was 90%. The “toxic effects in mouse” value in data set [1] is on record as “Neither mouse showed any toxic effects”.
